Assay results: PubChem BioAssay AID276 (DTP/NCI, 2004)
Several values for one entry are separate records, joined by “and”; a condition that tells them apart may be missing. Equal values may be shown once. Inconclusive results and toxic doses are left out.

System: B6C3F1 mice, Lewis lung carcinoma iv, survival T/C
Assay: NCI In Vivo Anticancer Drug Screen. Data for tumor model Lewis Lung Carcinoma (intravenous) in B6C3F1 mice
Details: endpoint: median survival time, higher = longer survival
In short: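 T/C ratio derived from survival of compound-treated versus vehicle-treated mice bearing transplantable tumors.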

[1] = dose: 6.25 mg/kg/injection, schedule: Q01DX009 (ip), vehicle: saline
[2] = dose: 3.12 mg/kg/injection, schedule: Q01DX009 (ip), vehicle: saline
[3] = dose: 3.12 mg/kg/injection, schedule: Q01DX009 (ip), vehicle: saline with Tween-80
[4] = dose: 6.25 mg/kg/injection, schedule: Q01DX009 (ip), vehicle: saline with Tween-80
[5] = dose: 12.5 mg/kg/injection, schedule: Q01DX009 (ip), vehicle: saline with Tween-80
[6] = dose: 25.0 mg/kg/injection, schedule: Q01DX009 (ip), vehicle: saline with Tween-80
[7] = dose: 50.0 mg/kg/injection, schedule: Q01DX009 (ip), vehicle: saline with Tween-80
[8] = dose: 100.0 mg/kg/injection, schedule: Q01DX009 (ip), vehicle: saline with Tween-80
[9] = dose: 200.0 mg/kg/injection, schedule: Q01DX009 (ip), vehicle: saline with Tween-80
[10] = dose: 25.0 mg/kg/injection, schedule: Q01DX009 (ip), vehicle: Klucel (hydroxypropylcellulose) (HPC)
[11] = dose: 50.0 mg/kg/injection, schedule: Q01DX009 (ip), vehicle: Klucel (hydroxypropylcellulose) (HPC)
[12] = dose: 100.0 mg/kg/injection, schedule: Q01DX009 (ip), vehicle: Klucel (hydroxypropylcellulose) (HPC)

Compound: C1OC1C1CO1 (centres undefined)
- T/C (dose: 1.25 mg/kg/injection, schedule: Q01DX009 (ip), vehicle: suspension in saline): 101 % of control
- T/C (dose: 2.5 mg/kg/injection, schedule: Q01DX009 (ip), vehicle: suspension in saline): 112 % of control
- T/C (dose: 5.0 mg/kg/injection, schedule: Q01DX009 (ip), vehicle: suspension in saline): 105 % of control
- T/C (dose: 10.0 mg/kg/injection, schedule: Q01DX009 (ip), vehicle: suspension in saline): 99 % of control
- T/C (dose: 20.0 mg/kg/injection, schedule: Q01DX009 (ip), vehicle: suspension in saline): 101 % of control
- T/C (dose: 40.0 mg/kg/injection, schedule: Q01DX009 (ip), vehicle: suspension in saline): 108 % of control

Compound: COC1=C(C)C(=O)C2=C(C1=O)C1C3CC4=C(C(=O)C(OC)=C(C)C4=O)C(CNC(=O)C(C)=O)N3C(C#N)C(C2)N1C (centres undefined)
- T/C (dose: 0.12 mg/kg/injection, schedule: Q01DX009 (ip), vehicle: Klucel (hydroxypropylcellulose) (HPC)): 101 % of control
- T/C (dose: 0.25 mg/kg/injection, schedule: Q01DX009 (ip), vehicle: Klucel (hydroxypropylcellulose) (HPC)): 108 % of control
- T/C (dose: 0.5 mg/kg/injection, schedule: Q01DX009 (ip), vehicle: Klucel (hydroxypropylcellulose) (HPC)): 107 % of control
- T/C (dose: 1.0 mg/kg/injection, schedule: Q01DX009 (ip), vehicle: Klucel (hydroxypropylcellulose) (HPC)): 113 % of control

Compound: COc1cccc2c1C(=O)c1c(O)c3c(c(O)c1C2=O)C[C@@](O)(/C(C)=N\NC(=O)CO)C[C@@H]3OC1CC(N)C(O)C(C)O1 (some centres undefined)
- T/C [1]: 87 % of control

Compound: CC1=C(O)C(=O)[C@@H]2O[C@@H]2C1=O
- T/C (dose: 0.78 mg/kg/injection, schedule: Q01DX009 (ip), vehicle: saline): 94 % of control and 107 % of control
- T/C (dose: 1.56 mg/kg/injection, schedule: Q01DX009 (ip), vehicle: saline): 89 % of control and 103 % of control
- T/C [2]: 92 % of control and 104 % of control
- T/C [1]: 95 % of control and 104 % of control
- T/C (dose: 12.5 mg/kg/injection, schedule: Q01DX009 (ip), vehicle: saline): 100 % of control and 101 % of control

Compound: COc1cc2c3c(cccc3c1)C(=O)N(CCN(C)C)C2=O
- T/C (dose: 5.0 mg/kg/injection, schedule: Q01DX009 (ip), vehicle: saline with Tween-80): 101 % of control
- T/C (dose: 10.0 mg/kg/injection, schedule: Q01DX009 (ip), vehicle: saline with Tween-80): 110 % of control
- T/C (dose: 20.0 mg/kg/injection, schedule: Q01DX009 (ip), vehicle: saline with Tween-80): 122 % of control
- T/C (dose: 40.0 mg/kg/injection, schedule: Q01DX009 (ip), vehicle: saline with Tween-80): 101 % of control
- T/C (dose: 80.0 mg/kg/injection, schedule: Q01DX009 (ip), vehicle: saline with Tween-80): 119 % of control

Compound: C=C1N(C)c2ccccc2C1(C)C
- T/C [3]: 107 % of control
- T/C [4]: 102 % of control
- T/C [5]: 109 % of control
- T/C [6]: 98 % of control
- T/C [7]: 110 % of control

Compound: CC(C)CCC(=O)c1ccoc1
- T/C (dose: 0.12 mg/kg/injection, schedule: Q03HX027 (ip), vehicle: saline with Tween-80): 99 % of control
- T/C (dose: 0.25 mg/kg/injection, schedule: Q03HX027 (ip), vehicle: saline with Tween-80): 97 % of control
- T/C (dose: 0.5 mg/kg/injection, schedule: Q03HX027 (ip), vehicle: saline with Tween-80): 109 % of control
- T/C (dose: 1.0 mg/kg/injection, schedule: Q03HX027 (ip), vehicle: saline with Tween-80): 117 % of control

Compound: c1ccc(P(CCNCCP(c2ccccc2)c2ccccc2)c2ccccc2)cc1
- T/C [6]: 104 % of control
- T/C [7]: 97 % of control

Compound: O=S(=O)(CCl)OCCCl
- T/C [4]: 103 % of control and 86 % of control
- T/C [5]: 100 % of control and 111 % of control
- T/C [6]: 99 % of control and 101 % of control and 109 % of control
- T/C [7]: 104 % of control and 114 % of control and 88 % of control
- T/C [8]: 118 % of control and 258 % of control

Compound: CCC(C)Nc1ccc(N)cc1 (centres undefined)
- T/C (dose: 1.5 mg/kg/injection, schedule: Q01DX009 (ip), vehicle: Klucel (hydroxypropylcellulose) (HPC)): 86 % of control
- T/C (dose: 3.0 mg/kg/injection, schedule: Q01DX009 (ip), vehicle: Klucel (hydroxypropylcellulose) (HPC)): 98 % of control
- T/C (dose: 6.0 mg/kg/injection, schedule: Q01DX009 (ip), vehicle: Klucel (hydroxypropylcellulose) (HPC)): 94 % of control
- T/C (dose: 12.0 mg/kg/injection, schedule: Q01DX009 (ip), vehicle: Klucel (hydroxypropylcellulose) (HPC)): 93 % of control

Compound: Cc1cc(NCCCN(C)C)c2ccc3c(ccc4c(NCCCN(C)C)cc(C)nc43)c2n1
- T/C (dose: 0.19 mg/kg/injection, schedule: Q01DX009 (ip), vehicle: saline with Tween-80): 101 % of control
- T/C (dose: 0.39 mg/kg/injection, schedule: Q01DX009 (ip), vehicle: saline with Tween-80): 109 % of control
- T/C (dose: 0.78 mg/kg/injection, schedule: Q01DX009 (ip), vehicle: saline with Tween-80): 100 % of control
- T/C (dose: 1.56 mg/kg/injection, schedule: Q01DX009 (ip), vehicle: saline with Tween-80): 95 % of control
- T/C [3]: 100 % of control
- T/C [2]: 109 % of control

Compound: O=[N+]([O-])c1ccc(-n2[nH]nnc2=S)cc1
- T/C [5]: 101 % of control
- T/C [6]: 96 % of control
- T/C [7]: 103 % of control
- T/C [8]: 95 % of control
- T/C [9]: 94 % of control

Compound: CCNC(=O)[B-][N+](C)(C)C
- T/C (dose: 12.5 mg/kg/injection, schedule: Q01DX009 (ip), vehicle: Klucel (hydroxypropylcellulose) (HPC)): 98 % of control
- T/C [10]: 103 % of control
- T/C [11]: 100 % of control
- T/C [12]: 106 % of control

Compound: O=C1N[C@H]2[C@H](CS[C@H]2CCCCC(=O)N(CCP(c2ccccc2)c2ccccc2)CCP(c2ccccc2)c2ccccc2)N1
- T/C [10]: 93 % of control and 114 % of control
- T/C [11]: 98 % of control and 88 % of control
- T/C [12]: 102 % of control
- T/C (dose: 200.0 mg/kg/injection, schedule: Q01DX009 (ip), vehicle: Klucel (hydroxypropylcellulose) (HPC)): 92 % of control and 98 % of control

Compound: C/C=C(\C)c1cc(=O)c2c(C)cc3c(c2o1)C(=O)c1c(O)c(C2CC(C)(N(C)C)C(O)C(C)O2)cc(C2CC(N(C)C)C(O)C(C)O2)c1C3=O (centres undefined)
- T/C (dose: 31.25 micrograms/kg/injection, schedule: Q01DX009 (ip), vehicle: saline): 98 % of control
- T/C (dose: 62.5 micrograms/kg/injection, schedule: Q01DX009 (ip), vehicle: saline): 101 % of control
- T/C (dose: 125.0 micrograms/kg/injection, schedule: Q01DX009 (ip), vehicle: saline): 101 % of control
- T/C (dose: 250.0 micrograms/kg/injection, schedule: Q01DX009 (ip), vehicle: saline): 98 % of control

Compound: C[n+]1c2cc(N)ccc2cc2ccc(N)cc21
- T/C (dose: 1.5 mg/kg/injection, schedule: Q01DX009 (ip), vehicle: saline): 102 % of control
- T/C (dose: 3.0 mg/kg/injection, schedule: Q01DX009 (ip), vehicle: saline): 95 % of control
- T/C (dose: 6.0 mg/kg/injection, schedule: Q01DX009 (ip), vehicle: saline): 107 % of control
- T/C (dose: 12.0 mg/kg/injection, schedule: Q01DX009 (ip), vehicle: saline): 90 % of control

Compound: CCCCC(=O)OCC1OC(n2cnc3c(=S)nc[nH]c32)C(OC(=O)CCCC)C1OC(=O)CCCC (centres undefined)
- T/C [5]: 99 % of control
- T/C [6]: 100 % of control

Compound: CC(C#N)(C#N)N=Nc1ccc(Cl)cc1Cl
- T/C [5]: 98 % of control
- T/C [6]: 104 % of control
- T/C [7]: 109 % of control
- T/C [8]: 110 % of control
- T/C [9]: 106 % of control
- T/C (dose: 400.0 mg/kg/injection, schedule: Q01DX009 (ip), vehicle: saline with Tween-80): 104 % of control

Compound: N=c1ccn2c(n1)OC1C(O)C(CO)OC12 (centres undefined)
- T/C (dose: 25.0 mg/kg/injection, schedule: Q01DX009 (ip), vehicle: saline): 101 % of control
- T/C (dose: 50.0 mg/kg/injection, schedule: Q01DX009 (ip), vehicle: saline): 102 % of control
- T/C (dose: 100.0 mg/kg/injection, schedule: Q01DX009 (ip), vehicle: saline): 107 % of control
